Experiments:
Target C [1] = experiment: HiBiT protein abundance assay, Target C HiBiT K562 cell line; format: cell-based; conditions: Homo sapiens; HiBiT lytic detection, modified K562 cells, 24 hours, top dose 10 μM; read-out: Effect on protein abundance, Target C (IC50)
Procedure, shortened: (§1)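 Protein abundance was read by Nano-Glo HiBiT lytic luminescence after 24 h compound exposure (10-point, threefold series from 10 μM final) of HiBiT knock-in K562 cells. Parental K562 served as baseline; the 50%-abundance concentration was interpolated from a four-parameter logistic fit.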

Target C [2] = experiment: HiBiT protein abundance assay, Target C (Promega Nano-Glo HiBiT Lytic Detection System, knock-in K562 cell line); format: cell-based, human; conditions: Homo sapiens, K562, 24 h, HiBiT K562 cell line, 24 hours, top dose 10 μM; read-out: Effect on protein abundance, Target C (IC50 category)
Procedure, shortened: as §1

Compound	IC50 (Target C [1])	IC50 (Target C [2])
CCN1CC[C@@H](n2ncc3nc(-c4cc(C)c5nc(C)cn5n4)ccc3c2=O)CC12CC2 [Compound 1530]	< 100 nM	–
Cc1cn2cc(-n3cnc4ccc(N5CCNCC5)cc4c3=O)cc(F)c2n1 [Compound 2195]	> 10000 nM	–
Cc1c(O)c(-c2ncc3c(=O)n([C@@H]4CC[C@H](N)C4)ccc3n2)cc2cn(C)nc12 [Compound 1477]	100 to 1000 nM	–
Cc1cn2nc(-c3ccc4c(=O)n([C@@H]5CCN(C)[C@H](C)C5)ncc4n3)cc(C)c2n1 [Compound 1527]	100 to 1000 nM	–
Cc1cc(-c2ccc3c(=O)[nH]c(N4CCN(C)CC4)nc3c2)cc2cn(C)nc12 [Compound 2212]	> 10000 nM	–
Cc1cc(-c2ccc3ncn(C4CCNCC4)c(=O)c3c2)cc2cn(C)nc12 [Compound 2169]	> 10000 nM	–
Cc1cn2cc(-n3cnc4ccc(N(C)C5CCNCC5)cc4c3=O)cc(F)c2n1 [Compound 2200]	> 10000 nM	–
COc1cc(-c2ccc3c(=O)n([C@H]4CCN[C@@H](C)C4)ccc3n2)nn2cc(C)nc12 [Compound 1519, 2-(8-methoxy-2-methyl-imidazo[1,2-b]pyridazin-6-yl)-6-[(2S,4S)-2-methyl-4-piperidyl]-1,6-naphthyridin-5-one]	< 100 nM	–
Cc1c(O)c(-c2ccc3c(=O)n(C4CCNC4)cc(C)c3n2)cc2cn(C)nc12 (stereo not drawn) [Compound 1467]	1000 to 10000 nM	–
Cc1cc(-c2ccc3ncn(C4CCN(C)CC4)c(=O)c3c2)cc2cn(C)nc12 [Compound 2170]	> 10000 nM	–
Cc1cn2nc(-c3ccc4c(=O)n(C5CCN(CCF)C6(CC6)C5)ncc4n3)cc(C)c2n1 (stereo not drawn) [Compound 1542, 2-(2,8-dimethylimidazo[1,2-b]pyridazin-6-yl)-6-[4-(2-fluoroethyl)-4-azaspiro[2.5]octan-7-1]pyrido[2,3-d]pyridazin-5-one]	100 to 1000 nM	–
Cc1c(O)c(-c2nc(C)c3c(=O)n([C@@H]4CCNC5(CC5)C4)ccc3n2)cc2cn(C)nc12 [Compound 1515, (R)-2-(6-hydroxy-2,7-dimethyl-2H-indazol-5-yl)-4-methyl-6-(4-azaspiro[2.5]octan-7-yl)pyrido[4,3-d]pyrimidin-5(6H)-one]	100 to 1000 nM	–
Cc1cn2nc(-c3ccc4c(=O)n([C@@H]5CCN(C)C6(CC6)C5)ncc4n3)cc(C)c2n1 [Compound 1534]	< 100 nM	–
Cn1cc2ccc(-n3cnc4ccc(NC5CCNCC5)cc4c3=O)cc2n1 [Compound 2164]	> 10000 nM	–
Cn1cc2cc(-c3ncc4c(=O)n([C@@H]5CCNC5)ccc4n3)c(O)c(F)c2n1 [Compound 1466]	100 to 1000 nM	–
Cc1cn2nc(-n3cnc4ccc(N5CCN(C)CC5)cc4c3=O)cc(C)c2n1 [Compound 2202]	1000 to 10000 nM	–
CCN1CC[C@H](n2ncc3nc(-c4cc(C)c5nc(C)cn5n4)ccc3c2=O)CC12CC2 [Compound 1531]	100 to 1000 nM	–
Cc1cn2cc(-c3ncc4c(=O)n(C56CCC(N)(CC5)C6)ccc4n3)cc(F)c2n1 [Compound 1469, 6-(4-aminonorbornane-1-yl)-2-(8-fluoro-2-methyl-imidazo[1,2-a]pyridin-6-yl)pyrido[4,3-d]pyrimidin-5-one]	1000 to 10000 nM	–
Cc1cn2nc(-c3ccc4c(=O)n([C@H]5CCN(C)[C@@H](C)C5)ncc4n3)cc(C)c2n1 [Compound 1528, 2-(2,8-dimethylimidazo[1,2-b]pyridazin-6-yl)-6-(1,2-dimethyl-4-piperidyl)pyrido[2,3-d]pyridazin-5-one]	100 to 1000 nM	–
Cc1cn2nc(-c3ccc4c(=O)n(C5CCNC6(CCC6)C5)ncc4n3)cc(C)c2n1 (stereo not drawn) [Compound 1553]	1000 to 10000 nM	–

Compound	IC50 (Target C [1])	IC50 (Target C [2])
Cc1cn2nc(-c3ccc4c(=O)n([C@@H]5CCNC6(CCC6)C5)ncc4n3)cc(C)c2n1 [Compound 1545, 6-[(8R)-5-azaspiro[3.5]nonan-8-yl]-2-(2,8-dimethylimidazo[1,2-b]pyridazin-6-yl)pyrido[2,3-d]pyridazin-5-one]	< 100 nM	–
Cc1cn2nc(-c3ccc4c(=O)n(C5CC(C)N[C@H](C)C5)ncc4n3)cc(C)c2n1 (stereo in doubt) [Compound 1536, 2-(2,8-dimethylimidazo[1,2-b]pyridazin-6-yl)-6-[(2S,6R)-2,6-dimethyl-4-piperidyl]pyrido[2,3-d]pyridazin-5-one]	100 to 1000 nM	–
Cc1cn2nc(-c3ccc4c(=O)n([C@H]5CCN(C)C6(CC6)C5)ncc4n3)cc(C)c2n1 [Compound 1533]	100 to 1000 nM	–
Cn1cc2cc(-n3cnc4ccc(N5CCNCC5)cc4c3=O)cc(F)c2n1 [Compound 2196]	> 10000 nM	–
CN1CCC(Nc2ccc3ncn(-c4ccc5nn(C)cc5c4)c(=O)c3c2)CC1 [Compound 2171]	> 10000 nM	–
CNC12CCC(n3ccc4nc(-c5cc6cn(C)nc6c(C)c5O)ncc4c3=O)(CC1)C2 [Compound 1479]	1000 to 10000 nM	–
CN1CCC(N(C)c2ccc3ncn(-c4cc(F)c5nn(C)cc5c4)c(=O)c3c2)CC1 [Compound 2199]	> 10000 nM	–
Cn1cc2cc(-c3ncc4c(=O)n(C56CCC(N)(CC5)C6)ccc4n3)c(O)c(F)c2n1 [Compound 1468]	100 to 1000 nM	–
Cc1cn2nc(-n3cnc4ccc(N5CCNCC5)cc4c3=O)cc(C)c2n1 [Compound 2201]	> 10000 nM	–
Cc1cc(-c2nc3cc(N4CCNCC4)ccc3c(=O)[nH]2)cc2cn(C)nc12 [Compound 2213]	> 10000 nM	–
Cc1c(O)c(-c2ncc3c(=O)n([C@@H]4CC[C@@H](N)C4)ccc3n2)cc2cn(C)nc12 [Compound 1476, 6-[(1R,3R)-3-aminocyclopentyl]-2-(6-hydroxy-2,7-dimethyl-indazol-5-yl)pyrido[4,3-d]pyrimidin-5-one]	1000 to 10000 nM	–
CN(c1ccc2ncn(-c3cc(F)c4nn(C)cc4c3)c(=O)c2c1)C1CCNCC1 [Compound 2198]	> 10000 nM	–
Cc1cn2cc(-n3cnc4ccc(N5CCN(C)CC5)cc4c3=O)cc(F)c2n1 [Compound 2197]	1000 to 10000 nM	–
Cc1cc(-c2ccc3c(=O)[nH]c(N4CCNCC4)nc3c2)cc2cn(C)nc12 [Compound 2211]	> 10000 nM	–
Cc1c(O)c(-c2ncc3c(=O)n([C@H]4CCNC5(CC5)C4)ccc3n2)cc2cn(C)nc12 [Compound 1512]	100 to 1000 nM	–
Cc1cn2nc(-c3ccc4c(=O)n(C5CCN(CC6CC6)C6(CC6)C5)ncc4n3)cc(C)c2n1 (stereo not drawn) [Compound 1543, 6-[4-(cyclopropylmethyl)-4-azaspiro[2.5]octan-7-yl]-2-(2,8-dimethylimidazo[1,2-b]pyridazin-6-yl)pyrido[2,3-d]pyridazin-5-one]	100 to 1000 nM	–
Cn1cc2cc(-c3ncc4c(=O)n(C56CCC(N)(CC5)C6)ccc4n3)c(O)cc2n1 [Compound 1470]	1000 to 10000 nM	–
Cc1cn2cc(-c3ccc4c(c3)CCN(C3CCNCC3)C4=O)cc(C)c2n1 [Compound 217, 6-[2,8-dimethylimidazo[1,2-a]pyridin-6-yl]-2-(piperidin-4-yl)-3,4-dihydroisoquinolin-1-one]	–	> 10000 nM
Cc1c(O)c(-c2ncc3c(=O)n([C@@H]4C[C@H]5COC[C@@H](C4)N5)ccc3n2)cc2cn(C)nc12 [Compound 1471]	100 to 1000 nM	–

From patent US20250332173A1, “COMPOUNDS AND METHODS FOR MODULATING NUCLEIC ACID SPLICING” (REMIX THERAPEUTICS INC., priority 2021, published 2025)
